We go through 31 molecules from ChEMBL document CHEMBL1155200, “Structure-activity relationships of the 1-amino-3-(1H-indol-1-yl)-3-phenylpropan-2-ol series of monoamine reuptake inhibitors” (Bioorg Med Chem Lett, 2009).

In series [1] the target is Sodium-dependent dopamine transporter (Homo sapiens) (UniProt Q01959). The series can be described thus: Displacement of [3H]WIN-35428 from human DAT expressed in CHO cells. The class given is cell-based. The note with it: concentration not given here. For orientation: Loss of bound radioactivity is the signal in a displacement assay; it reports binding, not function.
Sodium-dependent dopamine transporter (Homo sapiens), sequence (Q01959 whole entry): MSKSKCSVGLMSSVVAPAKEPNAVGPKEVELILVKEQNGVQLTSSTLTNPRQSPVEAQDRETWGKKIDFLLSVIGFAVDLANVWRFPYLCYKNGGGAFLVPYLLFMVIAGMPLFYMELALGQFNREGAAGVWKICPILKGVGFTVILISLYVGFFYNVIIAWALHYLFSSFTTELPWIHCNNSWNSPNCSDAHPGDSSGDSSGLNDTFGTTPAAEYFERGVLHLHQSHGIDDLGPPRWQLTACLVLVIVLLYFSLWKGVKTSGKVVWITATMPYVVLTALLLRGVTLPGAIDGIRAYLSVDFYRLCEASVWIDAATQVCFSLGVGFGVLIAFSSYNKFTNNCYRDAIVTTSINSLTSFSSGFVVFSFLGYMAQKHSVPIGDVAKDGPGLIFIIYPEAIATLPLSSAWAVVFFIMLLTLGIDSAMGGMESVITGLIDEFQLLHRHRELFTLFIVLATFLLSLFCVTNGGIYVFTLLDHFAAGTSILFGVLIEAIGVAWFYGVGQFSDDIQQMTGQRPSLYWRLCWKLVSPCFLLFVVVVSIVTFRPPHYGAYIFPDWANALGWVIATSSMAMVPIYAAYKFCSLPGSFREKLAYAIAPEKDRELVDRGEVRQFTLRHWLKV

Series [2] addresses Sodium-dependent noradrenaline transporter (Homo sapiens, UniProt P23975).
Description: Inhibition of human NET expressed in MDCK-Net6 cells
The species entered for another series is Homo sapiens. The series can be described thus: Selectivity ratio, IC50 for human SERT to IC50 for human NET.
Series [3] concerns the target Sodium-dependent serotonin transporter (Homo sapiens, UniProt P31645). Format: cell-based, JAR.
Description: Inhibition of human SERT expressed in JAR cells
A short description of series [4]: Oral bioavailability in rat at 10 mg/kg. Format: ADME, organism-based. The note with it: in vivo.
Series [5] deals with Rattus norvegicus. The series can be described thus: Effect on temperature homeostasis in ovariectomized-induced thermoregulatory dysfunction telemetric Sprague-Dawley rat model assessed as duration of tail skin temperature reduction at 30 mg/kg, po. The class given is functional.
In series [6] the test system is Rattus norvegicus. Description: Effect on temperature homeostasis in ovariectomized-induced thermoregulatory dysfunction telemetric Sprague-Dawley rat model assessed as mean reduction in tail skin temperature at 30 mg/kg, po. Format: functional.
Series [7] concerns Rattus norvegicus. The series can be described thus: Effect on temperature homeostasis in ovariectomized-induced thermoregulatory dysfunction in telemetric Sprague-Dawley rat model assessed as duration of onset activity in tail skin temperature reduction at 10 mg/kg, po. The class given is functional.
Series [8] in a line: Plasma concentration in rat at 10 mg/kg, po after 8 hrs. The class given is ADME, organism-based. Set-up: dose 10 mg/kg, route oral.
In series [9] the test system is Rattus norvegicus. Description: Effect on temperature homeostasis in ovariectomized-induced thermoregulatory dysfunction telemetric Sprague-Dawley rat model assessed as mean reduction in tail skin temperature at 10 mg/kg, po. The class given is functional.
Series [10] can be described thus: Cmax in rat at 10 mg/kg, po after 8 hrs. Format: ADME, organism-based. Particulars: in vivo. Also on record: dose 10 mg/kg, route oral.
In series [11] the test system is Rattus norvegicus. The series can be described thus: Effect on temperature homeostasis in ovariectomized-induced thermoregulatory dysfunction in telemetric Sprague-Dawley rat model assessed as duration of onset activity in tail skin temperature reduction at 30 mg/kg, po. Format: functional.
Series [12] is described as follows: Ratio of AUC in brain to AUC in plasma in rat at 10 mg/kg, po and 2 mg/kg, iv. Format: ADME, organism-based. Particulars: read-out: Ratio AUC.
The subject of series [13] is Rattus norvegicus. Description: Effect on temperature homeostasis in ovariectomized-induced thermoregulatory dysfunction in telemetric Sprague-Dawley rat model assessed as duration of tail skin temperature reduction at 10 mg/kg, po. Format: functional.
Series [14] deals with Rattus norvegicus. Description: Effect on temperature homeostasis in ovariectomized-induced thermoregulatory dysfunction telemetric Sprague-Dawley rat model assessed as maximum reduction in tail skin temperature at 10 mg/kg, po. Format: functional.
The test system of series [15] is Rattus norvegicus. The series can be described thus: Effect on temperature homeostasis in ovariectomized-induced thermoregulatory dysfunction telemetric Sprague-Dawley rat model assessed as maximum reduction in tail skin temperature at 30 mg/kg, po. The class given is functional.

Sodium-dependent serotonin transporter, sequence (P31645 whole entry): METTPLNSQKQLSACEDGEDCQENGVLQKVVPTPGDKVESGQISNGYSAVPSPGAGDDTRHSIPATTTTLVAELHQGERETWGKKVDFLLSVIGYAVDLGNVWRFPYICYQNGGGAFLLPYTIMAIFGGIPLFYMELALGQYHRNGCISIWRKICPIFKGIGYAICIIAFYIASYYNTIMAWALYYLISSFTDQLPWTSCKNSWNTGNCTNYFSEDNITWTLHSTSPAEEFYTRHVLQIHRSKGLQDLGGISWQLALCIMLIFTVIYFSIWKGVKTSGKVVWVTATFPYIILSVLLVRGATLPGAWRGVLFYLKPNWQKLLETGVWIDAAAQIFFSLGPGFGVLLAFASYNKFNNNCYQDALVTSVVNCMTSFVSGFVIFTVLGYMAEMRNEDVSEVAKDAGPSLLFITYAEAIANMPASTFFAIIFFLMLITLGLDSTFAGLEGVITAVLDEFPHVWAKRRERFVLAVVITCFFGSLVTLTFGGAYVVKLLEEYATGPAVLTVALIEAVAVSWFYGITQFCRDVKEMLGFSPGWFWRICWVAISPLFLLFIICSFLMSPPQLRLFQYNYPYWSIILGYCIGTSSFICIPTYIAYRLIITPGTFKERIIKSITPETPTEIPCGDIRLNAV
Sodium-dependent noradrenaline transporter, sequence (P23975 whole entry): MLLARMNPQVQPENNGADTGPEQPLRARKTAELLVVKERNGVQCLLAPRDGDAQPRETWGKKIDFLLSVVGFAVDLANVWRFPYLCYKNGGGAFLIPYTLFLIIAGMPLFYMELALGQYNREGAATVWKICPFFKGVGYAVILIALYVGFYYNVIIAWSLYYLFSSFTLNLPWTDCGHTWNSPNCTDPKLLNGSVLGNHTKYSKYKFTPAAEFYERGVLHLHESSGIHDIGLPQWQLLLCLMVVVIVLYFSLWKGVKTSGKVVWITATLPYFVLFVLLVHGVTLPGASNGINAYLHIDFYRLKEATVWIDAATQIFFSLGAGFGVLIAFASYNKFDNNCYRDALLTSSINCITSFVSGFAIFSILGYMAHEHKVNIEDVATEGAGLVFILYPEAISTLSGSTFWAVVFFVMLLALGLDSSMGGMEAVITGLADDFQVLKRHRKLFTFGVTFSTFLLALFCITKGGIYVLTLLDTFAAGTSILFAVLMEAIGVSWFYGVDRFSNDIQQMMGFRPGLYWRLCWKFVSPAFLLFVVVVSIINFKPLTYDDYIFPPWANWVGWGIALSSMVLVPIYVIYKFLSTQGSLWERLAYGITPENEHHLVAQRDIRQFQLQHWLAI

By inhibition is commonly meant the percentage by which the read-out fell short of the control. Lower therefore signals a weak effect. As usually defined, the IC50 is the midpoint of a concentration-inhibition curve. In turn, `CNC[C@@H](O)[C@H](c1cccc(F)c1)n1ccc2cc(Cl)ccc21` displayed an inhibition in [1] of 6%. In addition, the IC50 in [2] was found to be 0.06 µM; in [3], 0.079 µM. For the same molecule, the Ratio IC50 in the series listed under Homo sapiens came to 1.
Turning to `CNC[C@@H](O)[C@H](c1ccc(C)cc1)n1ccc2ccccc21`, the inhibition in series [1] amounted to 0%. For the same molecule, the figures for the IC50 in [2] and in [3] were 0.117 µM and 0.398 µM, respectively. The Ratio IC50 in the series filed under Homo sapiens came out at 3.
For `CNC[C@@H](O)[C@H](c1cccc(Cl)c1)n1ccc2ccccc21`, in that order: 20%, 0.016 µM, 0.554 µM and 34.
Regarding `CNC[C@@H](O)[C@H](c1cccc(F)c1)n1ccc2c(Cl)cccc21`, the inhibition in series [1] was determined as 12%. In addition, the IC50 came to 0.064 µM in series [2] and 0.221 µM in [3]. Also, in the series filed under Homo sapiens, the Ratio IC50 amounted to 3.
Molecule `CNC[C@@H](O)[C@H](c1cccc(F)c1)n1ccc2c(Br)cccc21` showed an inhibition in series [1] of 24%. For the same molecule, the IC50 came out at 0.052 µM in [2] and 0.207 µM in series [3]. Moreover, the Ratio IC50 in the series filed under Homo sapiens is 4.
In the case of `CNC[C@@H](O)[C@H](c1ccc(Cl)cc1)n1ccc2ccccc21`, the inhibition in series [1] is 16%. Further, the 50% inhibitory concentration (IC50) came to 0.527 µM in [2] and 0.748 µM in series [3]. Besides, the Ratio IC50 in the series filed under Homo sapiens stood at 1.
What is called bioavailability is the share of a dose that reaches the circulation, judged against a reference dose that is usually intravenous. Higher therefore signals good availability. What is called Cmax is the highest concentration seen after dosing. The molecule `CNC[C@@H](O)[C@H](c1cccc(F)c1)n1cc(C)c2ccccc21` returned a bioavailability in series [4] of 6%. In addition, the Activity in the series on Rattus norvegicus [5] was 10.5 h; with Rattus norvegicus [6], -3.8 °C; in the series with Rattus norvegicus [7], 1 h; with Rattus norvegicus [9] it was -1.5 °C; in the series with Rattus norvegicus [11], 0.5 h; in the series on Rattus norvegicus [14] it was -2.3 °C. Moreover, in the series with Rattus norvegicus [15], the Activity is -7 °C. The concentration at 8 h in [8] was determined as 0.04 µM. In series [10], this molecule had a Cmax of 0.087 µg/mL. This molecule returned an inhibition in series [1] of 8%. Besides, the Kp in [12] stood at 3.5. The Time in the series with Rattus norvegicus [13] turned out to be 5 h. The IC50 in series [2] stood at 0.004 µM; in series [3], 0.343 µM. Moreover, in the series listed under Homo sapiens, the Ratio IC50 was found to be 86.
For `CNC[C@@H](O)[C@H](c1cccc(F)c1)n1ccc2ccc(F)cc21`, the inhibition in series [1] is 15%. The IC50 in series [2] came out at 0.02 µM; in series [3], 0.626 µM. For the same molecule, the Ratio IC50 in the series listed under Homo sapiens was found to be 31.
For `CNC[C@@H](O)[C@H](c1cccc(F)c1)n1ccc2cccc(Cl)c21`, in that order: 0%, 0.021 µM, 0.048 µM and 2.
The molecule `CNC[C@@H](O)[C@H](c1cccc(F)c1)n1ccc2cc(F)ccc21` returned an inhibition in [1] of 9%. The IC50 in [2] came out at 0.022 µM; in [3], 0.078 µM. Besides, the Ratio IC50 in the series listed under Homo sapiens was 4.
Molecule `CNC[C@@H](O)[C@H](c1ccccc1F)n1ccc2ccccc21` came in with an inhibition in series [1] of 4%. In addition, the IC50 in [2] stood at 0.092 µM; in series [3] it was 0.473 µM. Besides, the Ratio IC50 in the series listed under Homo sapiens is 5.
In series [1], `CNC[C@@H](O)[C@H](c1cccc(F)c1)n1ccc2ccccc21` registered an inhibition of 23%. The IC50 was 0.011 µM in series [2] and 0.441 µM in series [3]. For the same molecule, the Ratio IC50 in the series listed under Homo sapiens is 40.
Take `CNC[C@@H](O)[C@H](c1cccc(Br)c1)n1ccc2ccccc21`: the inhibition in series [1] was determined as 13%. The IC50 stood at 0.014 µM in series [2] and 0.547 µM in [3]. Moreover, the Ratio IC50 in the series filed under Homo sapiens was 39.
On to `CNC[C@@H](O)[C@H](c1cccc(OC)c1)n1ccc2ccccc21`, for which the inhibition in series [1] was found to be 0%. Moreover, the half-maximal inhibitory concentration (IC50) in series [2] is 0.111 µM; in [3] it was 0.882 µM. In addition, the Ratio IC50 in the series filed under Homo sapiens came to 8.
For `CNC[C@@H](O)[C@H](c1cccc(F)c1)n1ccc2cccc(Br)c21`, in that order: 0%, 0.021 µM, 0.113 µM and 5.
Consider `CNC[C@@H](O)[C@H](c1cccc(C(F)(F)F)c1)n1ccc2ccccc21`, for which, in series [1], the inhibition turned out to be 14%. For the same molecule, the IC50 in series [2] came out at 0.054 µM; in series [3], 2.18 µM. For the same molecule, the Ratio IC50 in the series listed under Homo sapiens was 40.
For `CCc1cn([C@@H](c2cccc(F)c2)[C@H](O)CNC)c2ccccc12`, in that order: 0%, 0.01 µM, 0.834 µM and 83.
In turn, `CNC[C@@H](O)[C@H](c1ccccc1Cl)n1ccc2ccccc21` showed an inhibition in series [1] of 7%. For the same molecule, the IC50 was 0.304 µM in series [2] and 1.33 µM in series [3]. The Ratio IC50 in the series filed under Homo sapiens worked out at 4.
Turning to `CNC[C@@H](O)[C@H](c1cccc(F)c1)n1ccc2cc(C)ccc21`, in series [1], the inhibition was 0%. In addition, the figures for the IC50 in series [2] and in series [3] were 0.021 µM and 0.048 µM, respectively. Further, the Ratio IC50 in the series listed under Homo sapiens came to 2.
For `CNC[C@@H](O)[C@H](c1cccc(F)c1)n1ccc2c(F)cccc21`, in [1], the inhibition stood at 3%. Besides, the IC50 in series [2] was determined as 0.016 µM; in [3] it was 0.417 µM. The Ratio IC50 in the series filed under Homo sapiens turned out to be 26.
For the molecule `CNC[C@@H](O)[C@H](c1cccc(F)c1)n1ccc2c(C)cccc21`, in series [1], the inhibition worked out at 4%. For the same molecule, the IC50 is 0.015 µM in series [2] and 0.228 µM in series [3]. Moreover, in the series filed under Homo sapiens, the Ratio IC50 is 15.
With `CNC[C@@H](O)[C@H](c1cccc(C)c1)n1ccc2ccccc21`, the inhibition in series [1] turned out to be 8%. Moreover, the IC50 in series [2] stood at 0.049 µM; in series [3], 0.377 µM. Besides, the Ratio IC50 in the series filed under Homo sapiens is 8.
Take `CNCC[C@H](c1ccccc1)n1ccc2ccccc21`: in [1], the inhibition was determined as 44%. Moreover, the IC50 in [2] is 0.034 µM; in series [3], 0.491 µM. Moreover, the Ratio IC50 in the series listed under Homo sapiens worked out at 14.
`CNC[C@@H](O)[C@H](c1cccc(F)c1)n1ccc2cccc(F)c21`: the inhibition in series [1] came to 8%. Moreover, the IC50 in series [2] was found to be 0.007 µM; in [3], 0.175 µM. In addition, the Ratio IC50 in the series listed under Homo sapiens is 25.
`CNC[C@@H](O)[C@H](c1cccc(F)c1)n1ccc2ccc(Cl)cc21` displayed an inhibition in [1] of 9%. In addition, the figures for the IC50 in series [2] and in series [3] were 0.092 µM and 0.865 µM, respectively. The Ratio IC50 in the series listed under Homo sapiens was determined as 9.
Take `CNC[C@@H](O)[C@H](c1cccc(F)c1)n1ccc2ccc(Br)cc21`: in series [1], the inhibition was 12%. Further, the IC50 in series [2] came to 0.124 µM; in series [3], 1 µM. Further, in the series listed under Homo sapiens, the Ratio IC50 amounted to 8.
The molecule `CNC[C@@H](O)[C@H](c1ccccc1C)n1ccc2ccccc21` had an inhibition in [1] of 11%. For the same molecule, the values for the IC50 in series [2] and in series [3] were 0.232 µM and 0.266 µM, respectively. The Ratio IC50 in the series listed under Homo sapiens turned out to be 1.
For `CNC[C@@H](O)[C@H](c1cccc(F)c1)n1ccc2cccc(C)c21`, the inhibition in series [1] came out at 7%. Further, the IC50 in [2] is 0.018 µM; in series [3], 0.527 µM. Moreover, the Ratio IC50 in the series listed under Homo sapiens was determined as 29.
`CNC[C@@H](O)[C@H](c1ccc(F)cc1)n1ccc2ccccc21` had an inhibition in series [1] of 11%. The figures for the IC50 in [2] and in [3] were 0.084 µM and 1.37 µM, respectively. In addition, the Ratio IC50 in the series filed under Homo sapiens came to 16.
In turn, `CNC[C@@H](O)[C@H](c1cccc(F)c1)n1ccc2cc(Br)ccc21` yielded an inhibition in series [1] of 10%. The values for the IC50 in [2] and in series [3] were 0.06 µM and 0.052 µM, respectively. Besides, the Ratio IC50 in the series filed under Homo sapiens came out at 1.
For `CNCC[C@H](c1cccc(F)c1)n1ccc2ccccc21`, in that order: 52%, 0.091 µM, 0.014 µM and 0.2.
